Results: US20170008928A1, “NOVEL PEPTIDES AND PEPTIDE DERIVATIVES AND USES THEREOF” (Novo Nordisk A/S, priority 2015, published 2017)
pEC50, pIC50: −log10 of the molar value. Where two headings read alike, the source gives them in different places. Starred links: 1 amine or outer side, 2 acyl side, 3 side chain; linkers in the order of their positions; H or OH if unused. Non-standard residues stand in square brackets, D forms with d. Residues, ends and D or L forms follow the SMILES beside them. *: point of attachment. Phe(4-CH2SO3H) = N[C@@H](Cc1ccc(CS(=O)(=O)O)cc1)C(=O)O; sY = N[C@@H](Cc1ccc(OS(=O)(=O)O)cc1)C(=O)O; C18 diacid = O=C(O)CCCCCCCCCCCCCCCCC(=O)*; d(βAsp) = O=C(O)[C@@H](CC(=O)[*:2])N[*:1]; γGlu = O=C(O)[C@H](CCC(=O)[*:2])N[*:1]; Met(O2) = CS(=O)(=O)CC[C@H](N)C(=O)O; NMeF = CN[C@@H](Cc1ccccc1)C(=O)O; dNMeD = CN[C@H](CC(=O)O)C(=O)O; Nle = CCCC[C@H](N)C(=O)O; AEEA = NCCOCCOCC(=O)O

Assays:
[1] = biological target: T1, human cholecystokinin-1 receptor (CCK-1R) (Homo sapiens, UniProt P32238); assay: In vitro potency on CCK-1R, whole cell functional assay (IP1 accumulation, IP-One HTRF); format: cell-based
T1 construct: host or cells: 1321-N1 cells
T1 sequence (P32238 1-428): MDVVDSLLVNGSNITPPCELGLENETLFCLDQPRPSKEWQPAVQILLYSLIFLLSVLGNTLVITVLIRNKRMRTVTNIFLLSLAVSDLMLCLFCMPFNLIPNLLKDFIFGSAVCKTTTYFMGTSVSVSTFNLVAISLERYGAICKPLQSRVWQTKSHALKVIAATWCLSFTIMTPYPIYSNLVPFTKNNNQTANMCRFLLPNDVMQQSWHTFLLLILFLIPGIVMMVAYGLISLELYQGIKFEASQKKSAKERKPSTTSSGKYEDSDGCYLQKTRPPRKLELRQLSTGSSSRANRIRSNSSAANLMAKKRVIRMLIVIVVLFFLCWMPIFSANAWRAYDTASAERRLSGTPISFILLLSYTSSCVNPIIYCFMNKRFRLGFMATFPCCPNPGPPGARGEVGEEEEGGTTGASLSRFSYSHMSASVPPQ

[2] = biological target: T2, human cholecystokinin-2 receptor (CCK-2R) (Homo sapiens, UniProt P32239); assay: In vitro receptor binding to CCK-2R, SPA displacement of [125I]-CCK-8s from plasma membranes
T2 construct: host or cells: 1321-N1 cells (plasma membranes prepared by Evotec AG Hamburg)
T2 sequence (P32239 1-447): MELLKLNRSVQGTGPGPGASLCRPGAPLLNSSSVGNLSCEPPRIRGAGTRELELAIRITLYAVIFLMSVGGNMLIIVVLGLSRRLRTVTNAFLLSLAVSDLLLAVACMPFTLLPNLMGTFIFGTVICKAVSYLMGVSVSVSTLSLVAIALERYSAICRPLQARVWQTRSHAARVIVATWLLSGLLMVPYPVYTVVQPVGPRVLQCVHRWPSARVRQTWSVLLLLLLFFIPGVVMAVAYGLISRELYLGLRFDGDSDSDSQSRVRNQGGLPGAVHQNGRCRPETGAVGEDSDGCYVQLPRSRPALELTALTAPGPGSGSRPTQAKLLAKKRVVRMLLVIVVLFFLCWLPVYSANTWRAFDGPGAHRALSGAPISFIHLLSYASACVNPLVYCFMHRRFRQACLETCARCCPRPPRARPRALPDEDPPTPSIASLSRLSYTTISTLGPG

[3] = biological target: T1, human cholecystokinin-1 receptor (CCK-1R); assay: In vitro receptor binding to CCK-1R, SPA displacement of [125I]-CCK-8s from plasma membranes
Method: The in vitro binding affinity is a measure of the strength of attraction between a receptor and its ligand.
Displacement of radio ligand was measured as reduction in light emission from SPA beads.
The cells used in these assays were 1321-N1 cells stably expressing the CCK-1R or the CCK-2R (Perkin Elmer product numbers ES-530-A and ES-531-A, respectively see www.perkinelmer.com/Catalog/Product/ID/ES-530-A or -ES-531-A, respectively).
The cells were cultured in an incubator (95% RH (relative humidity), 5% (of standard atmospheric pressure) CO2, 37° C.) in cell culture medium (DMEM (Lonza catalogue BE-12-604F/U1), with 10% (v/v) Foetal Calf Serum (FCS, Gibco catalogue 16140-071), 1% (w/w) Sodium pyruvate (Gibco catalogue 11360-039), 500 μg/ml Geneticin® (G418) (Gibco catalogue 10131-027), 25 μg/ml Zeocin™ (Invitrogen catalogue R250-05), 1% (w/w) Pen/Strep (Gibco catalogue 15140-122)).
Plasma membranes were prepared by Evotec AG Hamburg by use of the ParrBomb (#4635, Parr Instrument Company). Cells were lysed with a lysis buffer (50 mM Tris, 2.5 mM EDTA, pH7) with added protease inhibitors (Complete Proteaseinhibitors EDTA-free (#05056489001, Roche), 1 tablet per 50 mL lysis buffer). The membrane fraction was separated by centrifugation. First, the cell lysate was centrifuged at 1000×g for 10 minutes at 4° C. The pellet was discarded and the supernatant was then centrifuged at 100.000×g for 30 minutes at 4° C. The supernatant was discarded and the pellet was re-suspended in 1 ml/5×10^8 cells ice cold membrane buffer (50 mM Tris, 320 mM Sucrose and Complete Proteaseinhibitors EDTA-free (#05056489001, Roche); pH7.4) and homogenised with dounce homogeniser. The protein concentration was determined using the Pierce™ BCA Protein Assay Kit according to kit manual, and the membrane preparation was adjust to the desired protein concentration with membrane buffer and aliquoted into pre-cooled tubes, snap-frozen in liquid nitrogen, and stored at −80° C.
CCK receptor binding assays were performed in 96-well Optiplates (Cat #6005290, PerkinElmer, Waltham, Mass., USA) in a total volume of 200 μl per well. CCK derivatives in 80% DMSO stock solutions of 800 μM were serially diluted […] in assay buffer (50 mM Tris/HCl, 4.5 mM MgCl2, […], 0.02% Tween 20, 0.25% ovalbumin, 0.1% pluronic F-68, pH 7.4) to final assay concentrations ranging from 10^−5 M (ten μM) to 10^−12 M (one pM).
Fifty μl of reference or test compounds were added to the Optiplates (using technical duplicates, i.e. two wells of each sample, one data point being the average of two wells), followed by addition of 150 μl of the mixture of SPA bead, radio ligand, and plasma membrane. The plates were sealed and incubated in the dark at +22° C. for 2 hours on a IKA MTS plate shaker (IKA-Werke D-79219 Staufen) set at 300 rpm and thereafter centrifuged at 1500 rpm for 10 minutes in a Heraeus Multifuge 3s centrifuge. SPA bead light emission was measured in a TopCount NXT (PerkinElmer) for 2 min/well after a delay of 60 min.
As a measure of compound affinity, calculations were performed in order to determine the half maximal inhibitory concentration (the IC50 value).
The data from the TopCounter were given as counts per minute (CPM). The CPM was plotted as a function of the concentration of compound. Dose-response curves were obtained, and IC50 values were calculated, by a nonlinear three-parameter logistic equation (log(agonist) vs response) with hillslope=−1, and shared top and bottom using the software programme GraphPad Prism v 6.0 (Graph Pad software, La Jolla, Calif., USA). The highest dose tested was 10^−5 M (1×10^7 pM).
The preference of a specific compound for the CCK-1 receptor, or the CCK-1R selectivity, may be defined as IC50 (CCK-2R)/IC50 (CCK-1R).
A minimum of three biological replicates was measured for each test compound on separate assay plates.

[4] = biological target: T2, human cholecystokinin-2 receptor (CCK-2R); assay: In vitro potency on CCK-2R, whole cell functional assay (IP1 accumulation, IP-One HTRF); format: cell-based
[5] = displacement of [125I]-CCK-8s, plasma membranes of 1321-N1 cells expressing CCK-2R, highest dose tested 1×10^7 pM, read-out: IC50 (CCK-2R)
[6] = displacement of [125I]-CCK-8s, plasma membranes of 1321-N1 cells expressing CCK-1R, read-out: IC50 (CCK-1R)
[7] = 1321-N1 cells stably expressing CCK-2R, IP1 accumulation, highest dose tested 1×10^6 pM, read-out: EC50 (CCK-2R)

SMILES | pEC50 [4, 7] | pIC50 [2] | pIC50 [3] | pEC50 [4] | other results
CCCC[C@H](NC(=O)[C@H](Cc1ccc(CS(=O)(=O)O)cc1)NC(=O)[C@H](CC(=O)O)NC(=O)COCCOCCNC(=O)[C@H](CCCCN)NC(=O)COCCOCCNC(=O)COCCOCCNC(=O)CC[C@H](NC(=O)CCCCCCCCCCCCCCCCC(=O)O)C(=O)O)C(=O)NCC(=O)N[C@@H](Cc1c[nH]c2ccccc12)C(=O)N[C@@H](CCCC)C(=O)N(C)[C@H](CC(=O)O)C(=O)N(C)[C@@H](Cc1ccccc1)C(N)=O [Example 19, 2-[2-[2-[[2-[2-[2-[[(4S)-4-Carboxy-4-(17-carboxyheptadecanoylamino)butanoyl]amino]ethoxy]ethoxy]acetyl]amino]ethoxy]ethoxy]acetyl-Lys-2-[2-(2-aminoethoxy)ethoxy]acetyl-Asp-Phe(4-sulfomethyl)-Nle-Gly-Trp-Nle-DMeAsp-MePhe-amide] ({C18 diacid-γGlu-AEEA-AEEA}-K[AEEA]D[Phe(4-CH2SO3H)][Nle]GW[Nle][dNMeD][NMeF]-NH2) | – | – | – | – | pEC50 [1]: 9.68
CCCC[C@H](NC(=O)[C@H](Cc1ccc(CS(=O)(=O)O)cc1)NC(=O)C[C@@H](NC(=O)COCCOCCNC(=O)COCCOCCNC(=O)CC[C@H](NC(=O)CCCCCCCCCCCCCCCCC(=O)O)C(=O)O)C(=O)O)C(=O)NCC(=O)N[C@@H](Cc1c[nH]c2ccccc12)C(=O)N[C@@H](CCCC)C(=O)N(C)[C@H](CC(=O)O)C(=O)N(C)[C@@H](Cc1ccccc1)C(N)=O [Example 27, 2-[2-[2-[[2-[2-[2-[[(4S)-4-Carboxy-4-(17-carboxyheptadecanoylamino)butanoyl]amino]ethoxy]ethoxy]acetyl]amino]ethoxy]ethoxy]acetyl-DbAsp-Phe(4-sulfomethyl)-Nle-Gly-Trp-Nle-DMeAsp-MePhe-amide] ({C18 diacid-γGlu-AEEA-AEEA-d(βAsp)}-[Phe(4-CH2SO3H)][Nle]GW[Nle][dNMeD][NMeF]-NH2) | < 6.00 | – | – | – | pIC50 [2, 5]: < 5.00; pIC50 [3, 6]: 9.89
CC(C)C[C@H](NC(=O)[C@H](Cc1ccc(OS(=O)(=O)O)cc1)NC(=O)[C@H](CC(=O)O)NC(=O)COCCOCCNC(=O)COCCOCCNC(=O)CC[C@H](NC(=O)CCCCCCCCCCCCCCCCC(=O)O)C(=O)O)C(=O)NCC(=O)N[C@@H](Cc1c[nH]c2ccccc12)C(=O)N[C@@H](C)C(=O)N(C)[C@H](CC(=O)O)C(=O)N(C)[C@@H](Cc1ccccc1)C(N)=O [Example 40, 2-[2-[2-[[2-[2-[2-[[(4S)-4-Carboxy-4-(17-carboxyheptadecanoylamino)butanoyl]amino]ethoxy]ethoxy]acetyl]amino]ethoxy]ethoxy]acetyl-Asp-sTyr-Leu-Gly-Trp-Ala-DMeAsp-MePhe-amide] ({C18 diacid-γGlu-AEEA-AEEA}-D[sY]LGWA[dNMeD][NMeF]-NH2) | – | < 5.00 | 9.19 | 6.06 | –
CC(C)C[C@H](NC(=O)[C@H](Cc1ccc(OS(=O)(=O)O)cc1)NC(=O)[C@@H](N)CC(=O)O)C(=O)NCC(=O)N[C@@H](Cc1c[nH]c2ccccc12)C(=O)N[C@@H](CCC(N)=O)C(=O)N(C)[C@H](CC(=O)O)C(=O)N(C)[C@@H](Cc1ccccc1)C(N)=O [Example 62, Asp-sTyr-Leu-Gly-Trp-Gln-DMeAsp-MePhe-amide] (H-D[sY]LGWQ[dNMeD][NMeF]-NH2) | – | < 5.00 | 10.12 | < 6.00 | –
CC(C)C[C@H](NC(=O)[C@H](Cc1ccc(OS(=O)(=O)O)cc1)NC(=O)[C@@H](N)CC(=O)O)C(=O)NCC(=O)N[C@@H](Cc1c[nH]c2ccccc12)C(=O)N[C@@H](CCS(C)(=O)=O)C(=O)N(C)[C@H](CC(=O)O)C(=O)N(C)[C@@H](Cc1ccccc1)C(N)=O [Example 63, Asp-sTyr-Leu-Gly-Trp-Met(O2)-DMeAsp-MePhe-amide] (H-D[sY]LGW[Met(O2)][dNMeD][NMeF]-NH2) | < 6.00 | < 5.00 | 9.27 | – | –
CC(C)C[C@H](NC(=O)[C@H](Cc1ccc(OS(=O)(=O)O)cc1)NC(=O)[C@@H](N)CC(=O)O)C(=O)NCC(=O)N[C@@H](Cc1c[nH]c2ccccc12)C(=O)N[C@H](C(=O)N(C)[C@H](CC(=O)O)C(=O)N(C)[C@@H](Cc1ccccc1)C(N)=O)C(C)C [Example 65, Asp-sTyr-Leu-Gly-Trp-Val-DMeAsp-MePhe-amide] (H-D[sY]LGWV[dNMeD][NMeF]-NH2) | – | < 5.00 | 9.21 | < 6.00 | –
CCCC[C@H](NC(=O)[C@H](Cc1c[nH]c2ccccc12)NC(=O)CNC(=O)[C@H](CCCNC(=N)N)NC(=O)[C@H](Cc1ccc(OS(=O)(=O)O)cc1)NC(=O)[C@@H](N)CC(=O)O)C(=O)N(C)[C@H](CC(=O)O)C(=O)N(C)[C@@H](Cc1ccccc1)C(N)=O [Example 68, Asp-sTyr-Arg-Gly-Trp-Nle-DMeAsp-MePhe-amide] (H-D[sY]RGW[Nle][dNMeD][NMeF]-NH2) | – | – | – | – | pEC50 ([1]; 1321-N1 cells stably expressing CCK-1R, IP1 accumulation, average of min. three replicates, read-out: EC50 (CCK-1R)): 9.68
CCCC[C@H](NC(=O)[C@H](Cc1c[nH]c2ccccc12)NC(=O)CNC(=O)[C@H](CC(C)C)NC(=O)[C@H](Cc1ccc(OS(=O)(=O)O)cc1)NC(=O)[C@@H](N)CCC(=O)O)C(=O)N(C)[C@H](CC(=O)O)C(=O)N[C@@H](Cc1ccccc1)C(N)=O [Example 90, Glu-sTyr-Leu-Gly-Trp-Nle-DMeAsp-Phe-amide] (H-E[sY]LGW[Nle][dNMeD]F-NH2) | < 6.00 | – | – | – | pIC50 [2, 5]: < 5.00; pIC50 [3, 6]: 10.54
